Patent publication US20160295864A1 (priority 2014, published 2016)

Columns and labels:
[1] = test system: Botrytis cinerea AARF-033; experiment: Antifungal activity test against rice Botrytis cinerea (96 well microplate, conidia in glucose broth); assay type: cell-based; conditions: AARF033, 96 h, conidia 1×10^4 conidia/ml, stationary culturing for 4 days at 25° C.
Source text: Test specimens (compound (4a-2) and compound (4b-2)), (compound (4a-3) and compound (4b-3)), and reference compounds i.e. iprodione and Captan, were each independently dissolved in dimethyl sulfoxide (DMSO) and adjusted to a concentration of 10,000 ppm. The test solution was dispensed 2 μ/ml in a flat-bottomed 96 well microplate, and then, conidia of rice Botrytis cinerea (Botrytis cinerea AARF-033) cultured on glucose agar medium, suspended in glucose broth and adjusted to 1×10^4 conidia/ml, were dispensed 198 μ/mL, followed by stirring by a micromixer. At that time, the concentrations of the test specimen and the reference compound, were 100 ppm. Thereafter, the antimicrobial activities were evaluated by stationary culturing for 4 days at 25° C.

[2] = test system: Pyricularia oryzae (Magnaporthe grisea); experiment: microbe, parasite or virus in culture; assay type: cell-based; conditions: read-out: Magnaporthe grisea inhibition

CC(C)NC(=O)N1CC(=O)N(c2cc(Cl)cc(Cl)c2)C1=O [Iprodione, iprodione]
inhibition at 100 ppm [1]: ≥ 95%

CO/N=C(/C1=NOCCO1)c1ccccc1Oc1ncnc(Oc2ccccc2Cl)c1F [Fluoxastrobin, fluoxastrobin]
inhibition at 100 ppm [2]: ≥ 95%

CCCCNC(=O)n1c(NC(=O)OC)nc2ccccc21 [Benomyl, benomyl]
inhibition at 100 ppm [2]: ≥ 95%

O=C1C2CC=CCC2C(=O)N1SC(Cl)(Cl)Cl (stereo not shown) [Captan]
inhibition at 100 ppm [1]: ≥ 95%
